SMILES strings stand for the structures. Some results are limits rather than exact numbers.

What all share (type): cell-based
The target of assay [1] is adenosine A3 receptor (A3R) (Homo sapiens (Human), UniProt P0DMS8). The experiment in a line: Inhibition of adenosine A3 receptor cAMP signaling pathway (HTRF cAMP, CHO-K1/A3R cells). Particulars: Table 2; for IC50: CHO-K1/A3R cells, forskolin 10 μM, 2Cl-IB-MECA 5 nM, cAMP HTRF. From the text:
(§1) Test Example 1. Determination of the inhibition activity of the compounds of the present invention on the adenosine A2a receptor (A2aR) cAMP signaling pathway, the adenosine A2b receptor (A2bR) cAMP signaling pathway, the adenosine A1 receptor (A1R) cAMP signaling pathway and the adenosine A3 receptor (A3R) cAMP signaling pathway.
(§2) The inhibition activity of the compounds of the present invention on the adenosine A2a receptor cAMP signaling pathway, the adenosine A2b receptor cAMP signaling pathway, the adenosine A1 receptor cAMP signaling pathway and the adenosine A3 receptor cAMP signaling pathway was determined by the following method. The experimental method is briefly described as follows:
2.3 Adenosine A3 receptor
(§3) CHO-K1/A3R cells were cultured in DMEM/F12 medium containing 10% fetal bovine serum and 10 μg/ml puromycin. The cells were digested with the cell separation buffer during the experiment. The cells were resuspended in the balanced salt buffer containing 20 mM HEPES and 0.1% bovine serum albumin and counted, and the cell density was adjusted to 5×10^5 cells/ml. In the 384-well plate, each well was added with 12.5 μl of cell suspension, and 6.25 μl of test compound (4× concentration) formulated with the balanced salt buffer containing 20 mM HEPES, 0.1% bovine serum albumin, 54 μM rolipram and 2.7 U/ml adenosine deaminase, and the plate was incubated at room temperature for 30 minutes. Each well was then added with 6.25 μl of forskolin and 2Cl-IB-MECA (4× concentration) formulated with the balanced salt buffer containing 20 mM HEPES, 0.1% bovine serum albumin, 54 μM rolipram and 2.7 U/ml adenosine deaminase, and the plate was incubated at room temperature for 30 minutes. The final concentrations of the compounds were: 100000, 10000, 1000, 100, 10, 1, 0.1 and 0 nM. The final concentration of forskolin was 10 μM. The final concentration of 2Cl-IB-MECA was 5 nM. Intracellular cAMP concentration was detected with the cAMP dynamic 2 kit. cAMP-d2 and Anti-cAMP-Eu-Cryptate were diluted respectively with the cAMP lysis buffer at a ratio of 1:4. Each well was added with 12.5 μl of diluted cAMP-d2, followed by addition of 12.5 μl of diluted Anti-cAMP-Eu-Cryptate, and the plate was incubated at room temperature in the dark for 1 hour. The HTRF signal values were read by the PHERAstar multi-function microplate reader.
For orientation: In TR-FRET formats the signal depends on donor and acceptor labels being close together.

Assay [2] deals with adenosine A2a receptor (A2aR) (Homo sapiens (Human), UniProt P29274). Put plainly: Inhibition of adenosine A2a receptor cAMP signaling pathway (HTRF cAMP, CHO-K1/A2aR cells).
adenosine A2a receptor (A2aR), sequence (P29274 whole entry): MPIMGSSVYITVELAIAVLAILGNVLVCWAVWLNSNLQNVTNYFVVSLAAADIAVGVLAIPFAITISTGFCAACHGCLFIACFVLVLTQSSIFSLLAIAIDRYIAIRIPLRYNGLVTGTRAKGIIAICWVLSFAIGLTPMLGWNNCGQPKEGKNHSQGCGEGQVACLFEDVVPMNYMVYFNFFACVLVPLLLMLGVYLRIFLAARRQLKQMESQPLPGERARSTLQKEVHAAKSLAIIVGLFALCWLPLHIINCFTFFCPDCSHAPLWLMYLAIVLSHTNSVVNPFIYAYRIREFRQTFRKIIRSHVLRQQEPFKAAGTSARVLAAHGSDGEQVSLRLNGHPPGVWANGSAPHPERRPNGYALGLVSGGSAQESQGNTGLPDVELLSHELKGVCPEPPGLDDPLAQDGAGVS
From the text: as §1, §2
2.1 Adenosine A2a Receptor
CHO-K1/A2aR cells were cultured in DMEM/F12 medium containing 10% fetal bovine serum and 800 μg/ml bleomycin. The cells were digested with the cell separation buffer during the experiment. The cells were resuspended in the balanced salt buffer containing 20 mM HEPES and 0.1% bovine serum albumin and counted, and the cell density was adjusted to 10^6 cells/ml. In the 384-well plate, each well was added with 5 μl of cell suspension, and 2.5 μl of test compound (4× concentration) formulated with the balanced salt buffer containing 20 mM HEPES, 0.1% bovine serum albumin, 54 μM rolipram and 2.7 U/ml adenosine deaminase, and the plate was incubated at room temperature for 30 minutes. Each well was then added with 2.5 μl of […] (4× concentration) formulated with the balanced salt buffer containing 20 mM HEPES, 0.1% bovine serum albumin, 54 μM rolipram and 2.7 U/ml adenosine deaminase, and the plate was incubated at room temperature for 30 minutes. The final concentrations of the compounds were: 10000, 2000, 400, 80, 16, 3.2, 0.64, 0.128, 0.0256, 0.00512, and 0.001024 nM. The final concentration of […] was 20 nM. Intracellular cAMP concentration was detected with the cAMP dynamic 2 kit. cAMP-d2 and Anti-cAMP-Eu-Cryptate were diluted respectively with the cAMP lysis buffer at a ratio of 1:4. Each well was added with 5 μl of diluted cAMP-d2, followed by addition of 5 μl of diluted Anti-cAMP-Eu-Cryptate, and the plate was incubated at room temperature in the dark for 1 hour. The HTRF signal values were read by the PHERAstar multi-function microplate reader.

Assay [3] concerns the target adenosine A1 receptor (A1R) (Homo sapiens (Human), UniProt P30542). The experiment in a line: Inhibition of adenosine A1 receptor cAMP signaling pathway (HTRF cAMP, CHO-K1/A1R cells). The conditions noted are these: Table 2; for IC50: CHO-K1/A1R cells, forskolin 10 μM, CPA 10 nM, cAMP HTRF; for IC50 ratio (A1R/A2aR): selectivity A1R over A2aR.
From the text: as §1, §2
2.2 Adenosine A1 receptor
as §3, with “CHO-K1/A1R cells were” for “CHO-K1/A3R cells were”, “serum and 1 mg/ml G418. The cells” for “serum and 10 μg/ml puromycin. The cells”, “cells were then resuspended in” for “cells were resuspended in”, “forskolin and N6-cyclopentyladenosine (4× concentration)” for “forskolin and 2Cl-IB-MECA (4× concentration)”, “concentration of CPA was 10” for “concentration of 2Cl-IB-MECA was 5”, “CPA was 10 nM. Intracellular” for “2Cl-IB-MECA was 5 nM. Intracellular”

Assay [4] has as its target adenosine A2b receptor (A2bR) (Homo sapiens (Human), UniProt P29275). The experiment in a line: Inhibition of adenosine A2b receptor cAMP signaling pathway (HTRF cAMP, CHO-K1/A2bR cells). The conditions noted are these: Table 3; for IC50: CHO-K1/A2bR cells, ethyl carbazole 1 μM, cAMP HTRF; for IC50 ratio (A2bR/A2aR): selectivity A2bR over A2aR.
From the text: as §1, §2
2.4 Adenosine A2b receptor (A2bR)
CHO-K1/A2bR cells were cultured in DMEM/F12 medium containing 10% fetal bovine serum and 1 mg/ml G418. The cells were digested with the cell separation buffer during the experiment. The cells were resuspended in the balanced salt buffer containing 20 mM HEPES and 0.1% bovine serum albumin and counted, and the cell density was adjusted to 10^6 cells/ml. In the 384-well plate, each well was added with 5 μl of cell suspension, and 2.5 μl of test compound (4× concentration) formulated with the balanced salt buffer containing 20 mM HEPES, 0.1% bovine serum albumin, 54 μM rolipram and 2.7 U/ml adenosine deaminase, and the plate was incubated at room temperature for 30 minutes. Each well was then added with 2.5 μl of […] (4× concentration) (Torcis, 1691/10) formulated with the balanced salt buffer containing 20 mM HEPES, 0.1% bovine serum albumin, 54 μM rolipram and 2.7 U/ml adenosine deaminase, and the plate was incubated at room temperature for 30 minutes. The final concentrations of the compounds were: 100000, 10000, 1000, 100, 10, 1, 0.1 and 0 nM. The final concentration of […] was 1 μM. Intracellular cAMP concentration was detected with the cAMP dynamic 2 kit. cAMP-d2 and Anti-cAMP-Eu-Cryptate were diluted respectively with the cAMP lysis buffer at a ratio of 1:4. Each well was added with 5 μl of diluted cAMP-d2, followed by addition of 5 μl of diluted Anti-cAMP-Eu-Cryptate, and the plate was incubated at room temperature in the dark for 1 hour. The HTRF signal values were read by the PHERAstar multi-function microplate reader.

adenosine A2b receptor (A2bR), sequence (P29275 whole entry): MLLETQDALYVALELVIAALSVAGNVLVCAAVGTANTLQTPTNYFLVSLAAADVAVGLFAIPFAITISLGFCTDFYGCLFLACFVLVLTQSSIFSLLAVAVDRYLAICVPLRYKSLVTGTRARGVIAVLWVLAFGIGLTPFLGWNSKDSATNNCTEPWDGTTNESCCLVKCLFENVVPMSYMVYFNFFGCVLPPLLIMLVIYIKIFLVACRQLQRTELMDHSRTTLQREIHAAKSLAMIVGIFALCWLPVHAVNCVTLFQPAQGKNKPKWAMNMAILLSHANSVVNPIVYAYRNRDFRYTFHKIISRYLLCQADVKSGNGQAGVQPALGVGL
adenosine A3 receptor (A3R), sequence (P0DMS8 whole entry): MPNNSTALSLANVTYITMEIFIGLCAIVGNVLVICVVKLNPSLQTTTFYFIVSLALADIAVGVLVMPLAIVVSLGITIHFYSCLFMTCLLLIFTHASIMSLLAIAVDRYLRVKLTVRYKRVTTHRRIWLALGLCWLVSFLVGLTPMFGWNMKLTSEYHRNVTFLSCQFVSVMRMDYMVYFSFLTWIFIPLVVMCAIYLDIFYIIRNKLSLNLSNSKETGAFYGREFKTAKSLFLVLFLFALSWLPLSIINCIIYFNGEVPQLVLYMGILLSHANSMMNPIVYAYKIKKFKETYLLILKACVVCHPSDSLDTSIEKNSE
adenosine A1 receptor (A1R), sequence (P30542 whole entry): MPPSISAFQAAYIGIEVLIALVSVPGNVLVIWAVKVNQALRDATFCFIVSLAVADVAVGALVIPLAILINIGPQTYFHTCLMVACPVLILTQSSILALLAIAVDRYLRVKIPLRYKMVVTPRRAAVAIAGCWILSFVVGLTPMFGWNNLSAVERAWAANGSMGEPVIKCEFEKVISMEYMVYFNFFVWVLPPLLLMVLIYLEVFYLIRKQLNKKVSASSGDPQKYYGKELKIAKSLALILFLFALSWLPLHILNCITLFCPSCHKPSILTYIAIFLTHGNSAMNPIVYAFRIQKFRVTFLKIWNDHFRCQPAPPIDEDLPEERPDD

In the case of `Cc1cc(-c2c(-c3ccccc3)nc(N)n3cnnc23)cc(C)n1` [Example 11, 8-(2,6-Dimethylpyridin-4-yl)-7-phenyl-[1,2,4]triazolo[4,3-c]pyrimidin-5-amine], in assay [1], the “IC50 ratio (A3R/A2aR)” value was >6.7 × 10^4. Besides, the IC50 (commonly the concentration at which inhibition is half-maximal) in assay [1] is over 10000 nM; in assay [2] (Table 1, ethyl carbazole 20 nM), 0.15 nM; in assay [2] (Table 2, ethyl carbazole 20 nM), 0.15 nM; in assay [3], 102 nM. Moreover, in assay [3], the “IC50 ratio (A1R/A2aR)” value came to 680.
Turning to `Cc1cc(-c2c(-c3ccc(F)cc3)nc(N)n3cnnc23)cc(C)n1` [Example 28, 8-(2,6-Dimethylpyridin-4-yl)-7-(4-fluorophenyl)-[1,2,4]triazolo[4,3-c]pyrimidin-5-amine], the “IC50 ratio (A3R/A2aR)” value in assay [1] is >1.9 × 10^4. Also, the IC50 in assay [1] is over 10000 nM; in assay [2] (Table 1, ethyl carbazole 20 nM), 0.52 nM; in assay [2] (Table 2, ethyl carbazole 20 nM) it was 0.52 nM; in assay [3], 66 nM. Also, the “IC50 ratio (A1R/A2aR)” value in assay [3] was 127.
On to `Nc1nc(-c2ccccc2)c(-c2ccc3ncccc3c2)c2nncn12` [Example 3, 7-Phenyl-8-(quinolin-6-yl)-[1,2,4]triazolo[4,3-c]pyrimidin-5-amine], for which the “IC50 ratio (A3R/A2aR)” value in assay [1] was 2.9 × 10^4. In addition, the half-inhibitory concentration (IC50) in assay [1] amounted to 2000 nM; in assay [2] (Table 1, ethyl carbazole 20 nM), 0.07 nM; in assay [2] (Table 2, ethyl carbazole 20 nM), 0.07 nM; in assay [3] it was 18 nM. Besides, the “IC50 ratio (A1R/A2aR)” value in assay [3] turned out to be 257.
Consider `Nc1nc(-c2ccccc2)c(-c2cc(F)c3ncccc3c2)c2nncn12` [Example 7, 8-(8-Fluoroquinolin-6-yl)-7-phenyl-[1,2,4]triazolo[4,3-c]pyrimidin-5-amine], for which the “IC50 ratio (A3R/A2aR)” value in assay [1] was 3.1 × 10^4. In addition, the IC50 in assay [1] is 5000 nM; in assay [2] (Table 1, ethyl carbazole 20 nM), 0.16 nM; in assay [2] (Table 2, ethyl carbazole 20 nM) it was 0.16 nM; in assay [3], 16 nM. Further, the “IC50 ratio (A1R/A2aR)” value in assay [3] amounted to 100.
Regarding `Cc1cc(-c2c(-c3ccc(F)cc3)nc(N)n3cnnc23)cc(C(F)F)n1` [Example 51, 8-(2-(Difluoromethyl)-6-methylpyridin-4-yl)-7-(4-fluorophenyl)-[1,2,4]triazolo[4,3-c]pyrimidin-5-amine], the “IC50 ratio (A3R/A2aR)” value in assay [1] is >10^4. For the same compound, the IC50 in assay [1] is over 10000 nM; in assay [2] (Table 1, ethyl carbazole 20 nM), 0.36 nM; in assay [2] (Table 2, ethyl carbazole 20 nM), 0.36 nM; in assay [3], 418 nM. Besides, the “IC50 ratio (A1R/A2aR)” value in assay [3] came to 1161.
With `Cc1cc(-c2c(-c3ccc(Cl)cc3)nc(N)n3cnnc23)cc(C(F)F)n1` [Example 52, 7-(4-Chlorophenyl)-8-(2-(difluoromethyl)-6-methylpyridin-4-yl)-[1,2,4]triazolo[4,3-c]pyrimidin-5-amine], the “IC50 ratio (A3R/A2aR)” value in assay [1] is >10^4. Also, the IC50 in assay [1] is over 10000 nM; in assay [2] (Table 1, ethyl carbazole 20 nM), 0.48 nM; in assay [2] (Table 2, ethyl carbazole 20 nM), 0.48 nM; in assay [3] it was 41 nM. Further, the “IC50 ratio (A1R/A2aR)” value in assay [3] came out at 85.
For the compound `Cc1cc(-c2c(-c3ccc(C)o3)nc(N)n3cnnc23)cc(C(F)(F)F)n1` [Example 8, 8-(2-Methyl-6-(trifluoromethyl)pyridin-4-yl)-7-(5-methylfuran-2-yl)-[1,2,4]triazolo[4,3-c]pyrimidin-5-amine], the IC50 in assay [4] turned out to be 203 nM; in assay [2] (Table 1, ethyl carbazole 20 nM) it was 0.18 nM; in assay [2] (Table 3, ethyl carbazole 20 nM) it was 0.18 nM. Also, in assay [4], the “IC50 ratio (A2bR/A2aR)” value is recorded as 1125.
Regarding `Cc1cc(-c2c(-c3ccc(F)cc3)nc(N)n3cnnc23)cc(Cl)n1` [Example 15, 8-(2-Chloro-6-methylpyridin-4-yl)-7-(4-fluorophenyl)-[1,2,4]triazolo[4,3-c]pyrimidin-5-amine], the IC50 in assay [4] worked out at 98.9 nM; in assay [2] (Table 1, ethyl carbazole 20 nM), 0.17 nM; in assay [2] (Table 3, ethyl carbazole 20 nM) it was 0.17 nM. Also, in assay [4], the “IC50 ratio (A2bR/A2aR)” value is on record as 582.
On to `Cc1cc(-c2c(-c3ccc(F)cc3F)nc(N)n3cnnc23)cc(Cl)n1` [Example 34, 8-(2-Chloro-6-methylpyridin-4-yl)-7-(2,4-difluorophenyl)-[1,2,4]triazolo[4,3-c]pyrimidin-5-amine], for which the half-inhibitory concentration (IC50) came out at 170 nM in assay [4]; 2.04 nM in assay [2] (Table 1, ethyl carbazole 20 nM); 2.04 nM in assay [2] (Table 3, ethyl carbazole 20 nM). Also, the “IC50 ratio (A2bR/A2aR)” value in assay [4] turned out to be 83.
Regarding `Cc1cc(-c2c(-c3ccc(F)cc3)nc(N)n3cnnc23)cc(C(F)(F)F)n1` [Example 16, 7-(4-Fluorophenyl)-8-(2-methyl-6-(trifluoromethyl)pyridin-4-yl)-[1,2,4]triazolo[4,3-c]pyrimidin-5-amine], the IC50 in assay [4] amounted to 122 nM; in assay [2] (Table 1, ethyl carbazole 20 nM) it was 0.63 nM; in assay [2] (Table 3, ethyl carbazole 20 nM), 0.63 nM. Moreover, the “IC50 ratio (A2bR/A2aR)” value in assay [4] is 194.

These data come from patent publication US11312705B2, “Heteroaryl[4,3-C]pyrimidine-5-amine derivative, preparation method therefor, and medical uses thereof” (Jiangsu Hengrui Medicine Co., Ltd., priority 2017, dated 2022).
